From ChEMBL document CHEMBL5385884, “Expanding role of CXCR2 and therapeutic potential of CXCR2 antagonists in inflammatory diseases and cancers” (Eur J Med Chem, 2023) come the findings set out here.

Broadly, the IC50 is the concentration that inhibits the measured activity by half. A high value points to lower potency.

For series [1], the target named is C-X-C chemokine receptor type 4 (Homo sapiens, UniProt P61073). Briefly: Antagonist activity at SDF-1-activated CXCR4 (unknown origin) overexpressed in human U2OS cells preincubated for 30 mins followed by SDF-1 addition measured after 5 hrs by beta-lactamase reporter gene assay. Format: functional, cell-based. On the technique in general: A reporter such as luciferase makes a cellular process visible.
Chain of C-X-C chemokine receptor type 4 (P61073 whole entry): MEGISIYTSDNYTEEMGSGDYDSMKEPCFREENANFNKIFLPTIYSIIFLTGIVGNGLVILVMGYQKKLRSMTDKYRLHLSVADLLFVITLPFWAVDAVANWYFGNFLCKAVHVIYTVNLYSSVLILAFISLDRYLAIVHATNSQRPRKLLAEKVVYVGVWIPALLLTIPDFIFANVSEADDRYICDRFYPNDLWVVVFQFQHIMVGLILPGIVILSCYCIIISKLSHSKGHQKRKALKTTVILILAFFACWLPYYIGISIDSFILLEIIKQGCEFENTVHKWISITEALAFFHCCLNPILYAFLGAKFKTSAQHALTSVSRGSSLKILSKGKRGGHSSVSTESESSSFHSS

The target in series [2] is T1, C-X-C chemokine receptor type 2 (Homo sapiens, UniProt P25025).
T1 sequence (P25025 whole entry): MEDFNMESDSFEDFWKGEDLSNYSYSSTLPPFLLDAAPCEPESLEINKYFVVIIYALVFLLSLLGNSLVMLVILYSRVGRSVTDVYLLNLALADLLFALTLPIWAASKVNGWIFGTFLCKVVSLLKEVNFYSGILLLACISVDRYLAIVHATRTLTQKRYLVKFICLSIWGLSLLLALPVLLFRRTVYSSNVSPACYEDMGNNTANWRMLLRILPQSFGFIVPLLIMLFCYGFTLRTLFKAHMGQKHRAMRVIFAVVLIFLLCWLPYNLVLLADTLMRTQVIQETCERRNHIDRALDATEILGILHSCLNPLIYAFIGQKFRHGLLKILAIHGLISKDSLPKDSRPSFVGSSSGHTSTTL
Description: Antagonist activity at CXCL8-activated CXCR2 (unknown origin) overexpressed in human U2OS cells preincubated for 30 mins followed by CXCL8 addition measured after 5 hrs by beta-lactamase reporter gene assay. Format: functional, cell-based.

A short description of series [3]: Intrinsic clearance in human hepatocytes measured per million cells at 100 uM incubated upto 90 mins by LCMS/MS analysis. The class given is ADME, cell-based, Hepatocyte. As to conditions: read-out: CLH.
The nature of series [4]: Effective half life in human. Format: ADME. As to conditions: read-out: t1/2eff (converted).
The target of series [5] is T1, C-X-C chemokine receptor type 2. Briefly: Antagonist activity at CXCR2 (unknown origin). The class given is functional.

Molecules are shown by their SMILES.

Take `CC(=O)c1c(C)oc2c1cc(NS(=O)(=O)c1ccc(C(C)(C)C)cc1)c1ccccc12`: in series [1], the IC50 is > 50000 nM.

Take `COc1cc(NS(=O)(=O)c2ccc(C)cc2)c2ncccc2c1`: the midpoint of inhibition in series [2], the IC50, lay at 400 nM. As to `C[C@@H](Oc1cc(NS(=O)(=O)N2CCC2)nc(SCc2cccc(F)c2F)n1)[C@@H](O)CO`, the hepatocyte CLint at 100 µM in series [3] was < 5 µL/min/1e6 cells. Moreover, the half-life in series [4] is 4 h. Turning to `COc1cc(NS(=O)(=O)c2cccc3nsnc23)c2ncccc2c1`, the IC50 in series [2] worked out at 360 nM; in series [1], 590 nM. Molecule `C[C@@H](C(=O)NS(C)(=O)=O)c1ccc(OS(=O)(=O)C(F)(F)F)cc1` [LADARIXIN] came in with an IC50 in series [5] of 0.7 nM. The same measure, in the same setting: to `O=C(Nc1ccc(F)cc1)c1cnc(SCc2cc(OC(F)(F)F)ccc2B(O)O)nc1` [SX-682] belongs 22 nM.
